Measured values from patent US20250041282A1, “METHOD FOR TREATING INFLAMMATORY PULMONARY DISEASE” (FU JEN CATHOLIC UNIVERSITY, priority 2021, published 2025).

Tests used:
RAW264.7 macrophages [1] = assay: Morphology of LPS-stimulated macrophages; assay type: cell-based, mouse; settings: LPS 24 hours; FIG. 1C
Description: To compare the anti-inflammatory effects of the newly synthesized compound FJU-C28 (FIG. 1A) on LPS-activated murine macrophages to those of the parent compound FJU-C4, RAW264.7 macrophages were pretreated with various concentrations of FJU-Cs for 30 min and then stimulated with or without LPS for 24 hours. […] LPS stimulation changed the shape of macrophages, resulting in dendritic-like cells with multiple vacuoles in the cytoplasm, whereas the untreated cells were round and small. […] This effect was consistent with the findings of the cytotoxicity assay. […] In addition, FJU-C28 suppressed the expression of iNOS and COX2 at doses higher than 5 μM (FIG. 1D).

RAW264.7 macrophages [2] = assay: Quantitative real-time PCR of inflammatory mediators and cytokines; assay type: cell-based, mouse; settings: LPS-induced
Description: RNA was isolated from cells using TRIzol reagent (Invitrogen, Carlsbad, CA, USA) as previously described.^32 The concentration of the isolated RNA was measured using an Epoch microplate spectrophotometer (BioTek, Winooski, VT, USA). One microgram of RNA was reverse-transcribed to cDNA with random primers and an MMLV RT kit (Epicenter Biotechnologies, Madison, WI, USA). The mixture (2 μl) was added to PCR reagents to measure the target mRNA level with specific primers (Table 1). All real-time PCRs were performed in a volume of 20 μl containing 10 μl of Real-time PCR SYBR Green master mix (Toyobo, Osaka, Japan) using a PikoReal 96 Real-Time PCR System (Thermo Fisher Scientific Inc.), according to our previously described method.^33 The expression of β-actin was used as an internal control for RNA quantification.

[3] = concentration less than 10 μM, FIG. 2

Q: C=CCC1CC(Sc2ccccc2)=CC(=O)N1C(=O)C=C (stereo not shown) [FJU-C28] was tested. Which “LPS-induced changes in macrophage morphology” value (RAW264.7 macrophages [1]) did it give?
A: dramatically inhibited these changes in morphology in a concentration-dependent manner

Q: And the “mRNA level of COX2” value (RAW264.7 macrophages [2]; FIG. 2)?
A: downregulated in a concentration-dependent manner

Q: What about the “mRNA level of iNOS” value (RAW264.7 macrophages [2]; FIG. 2) of the same molecule?
A: downregulated in a concentration-dependent manner

Q: And the “mRNA level of IL-1β” value (RAW264.7 macrophages [2]; [3])?
A: concentration-dependently decreased

Q: And the “mRNA level of IL-6” value (RAW264.7 macrophages [2]; [3])?
A: concentration-dependently decreased

Q: What about the “gene expression of IL-6” value (RAW264.7 macrophages [2]; dose higher than 5 μM) of the same molecule?
A: noticeably inhibited

Q: What about the “gene expression of iNOS” value (RAW264.7 macrophages [2]; dose higher than 5 μM) of the same molecule?
A: noticeably inhibited
